Measurements as given in ChEMBL document CHEMBL2321764, “Synthesis and antibacterial activities of new piperidine substituted (5R)-[1,2,3]triazolylmethyl and (5R)-[(4-F-[1,2,3]triazolyl)methyl] oxazolidinones” (Bioorg Med Chem Lett, 2013).
In brackets after ≈: the same amount, converted by molar mass.

Experiments:
Staphylococcus aureus = assay: Antibacterial activity against methicillin-resistant Staphylococcus aureus C463 by agar dilution method; format: functional
Streptococcus agalactiae = assay: Antibacterial activity against Streptococcus agalactiae ATCC 2901 by agar dilution method; format: functional
Staphylococcus = assay: Antibacterial activity against methicillin-resistant coagulase negative Staphylococcus by agar dilution method; format: functional
Enterococcus faecium = assay: Antibacterial activity against vancomycin-resistant Enterococcus faecium C803 by agar dilution method; format: functional
Streptococcus pyogenes = assay: Antibacterial activity against Streptococcus pyogenes 308A by agar dilution method; format: functional
Enterococcus faecalis = assay: Antibacterial activity against vancomycin-resistant Enterococcus faecalis C474 by agar dilution method; format: functional
Haemophilus influenzae = assay: Antibacterial activity against betalactamase positive Haemophilus influenzae by agar dilution method; format: functional
Streptococcus pneumoniae = assay: Antibacterial activity against penicillin-resistant Streptococcus pneumoniae C402 by agar dilution method; format: functional
CYP2C9 = CYP2C9 (Homo sapiens, UniProt P11712); assay: Inhibition of CYP2C9 (unknown origin) assessed as residual activity at 10 uM; format: ADME; conditions: read-out: INH
Sequence of CYP2C9 (P11712 whole entry): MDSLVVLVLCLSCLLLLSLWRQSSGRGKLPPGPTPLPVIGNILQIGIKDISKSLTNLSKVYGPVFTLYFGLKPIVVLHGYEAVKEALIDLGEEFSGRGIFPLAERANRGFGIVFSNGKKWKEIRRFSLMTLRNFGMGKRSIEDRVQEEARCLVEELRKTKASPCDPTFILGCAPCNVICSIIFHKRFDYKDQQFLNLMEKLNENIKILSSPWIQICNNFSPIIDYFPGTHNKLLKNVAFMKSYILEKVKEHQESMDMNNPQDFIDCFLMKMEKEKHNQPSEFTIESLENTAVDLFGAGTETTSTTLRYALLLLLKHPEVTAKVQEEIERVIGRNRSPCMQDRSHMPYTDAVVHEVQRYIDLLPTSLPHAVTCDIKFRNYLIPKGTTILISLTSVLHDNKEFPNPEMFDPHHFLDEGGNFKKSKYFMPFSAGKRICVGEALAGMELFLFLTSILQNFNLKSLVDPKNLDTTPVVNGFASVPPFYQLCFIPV

CYP1A2 = target: T1, CYP1A2 (Homo sapiens, UniProt P05177); assay: Inhibition of CYP1A2 (unknown origin) assessed as residual activity at 10 uM; format: ADME; conditions: read-out: INH
T1 sequence (P05177 whole entry): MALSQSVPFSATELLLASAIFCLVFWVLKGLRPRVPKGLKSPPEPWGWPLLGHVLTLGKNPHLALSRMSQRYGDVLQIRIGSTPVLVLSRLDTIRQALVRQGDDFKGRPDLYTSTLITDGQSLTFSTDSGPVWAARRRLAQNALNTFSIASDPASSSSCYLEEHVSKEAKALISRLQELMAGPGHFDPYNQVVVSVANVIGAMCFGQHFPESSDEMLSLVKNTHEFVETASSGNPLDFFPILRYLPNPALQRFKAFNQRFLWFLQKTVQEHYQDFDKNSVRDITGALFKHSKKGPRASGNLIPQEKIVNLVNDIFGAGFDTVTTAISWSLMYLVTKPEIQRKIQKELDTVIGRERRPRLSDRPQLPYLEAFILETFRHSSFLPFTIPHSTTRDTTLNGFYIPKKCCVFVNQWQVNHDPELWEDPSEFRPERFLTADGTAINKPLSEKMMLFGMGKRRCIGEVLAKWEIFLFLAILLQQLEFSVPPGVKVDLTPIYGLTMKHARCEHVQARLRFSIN

MAO-A = target: T2, MAO-A (Homo sapiens, UniProt P21397); assay: Inhibition of human MAO-A assessed as residual activity at 10 uM; conditions: read-out: INH
T2 sequence (P21397 whole entry): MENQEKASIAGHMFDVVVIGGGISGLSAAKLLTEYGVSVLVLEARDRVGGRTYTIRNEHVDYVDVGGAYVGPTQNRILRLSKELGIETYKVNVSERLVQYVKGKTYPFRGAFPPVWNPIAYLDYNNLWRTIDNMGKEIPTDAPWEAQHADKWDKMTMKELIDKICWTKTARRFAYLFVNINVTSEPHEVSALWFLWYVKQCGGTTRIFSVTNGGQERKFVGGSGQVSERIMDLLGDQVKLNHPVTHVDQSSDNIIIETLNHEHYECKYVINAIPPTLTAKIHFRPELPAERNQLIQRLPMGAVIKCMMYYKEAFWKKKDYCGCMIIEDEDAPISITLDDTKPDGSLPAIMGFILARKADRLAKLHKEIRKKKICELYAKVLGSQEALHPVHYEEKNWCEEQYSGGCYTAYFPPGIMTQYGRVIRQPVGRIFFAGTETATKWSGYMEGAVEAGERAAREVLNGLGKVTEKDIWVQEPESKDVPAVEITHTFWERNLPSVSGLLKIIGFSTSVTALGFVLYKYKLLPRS

CYP2D6 = CYP2D6 (Homo sapiens, UniProt P10635); assay: Inhibition of CYP2D6 (unknown origin) assessed as residual activity at 10 uM; format: ADME; conditions: read-out: INH
Sequence of CYP2D6 (P10635 whole entry): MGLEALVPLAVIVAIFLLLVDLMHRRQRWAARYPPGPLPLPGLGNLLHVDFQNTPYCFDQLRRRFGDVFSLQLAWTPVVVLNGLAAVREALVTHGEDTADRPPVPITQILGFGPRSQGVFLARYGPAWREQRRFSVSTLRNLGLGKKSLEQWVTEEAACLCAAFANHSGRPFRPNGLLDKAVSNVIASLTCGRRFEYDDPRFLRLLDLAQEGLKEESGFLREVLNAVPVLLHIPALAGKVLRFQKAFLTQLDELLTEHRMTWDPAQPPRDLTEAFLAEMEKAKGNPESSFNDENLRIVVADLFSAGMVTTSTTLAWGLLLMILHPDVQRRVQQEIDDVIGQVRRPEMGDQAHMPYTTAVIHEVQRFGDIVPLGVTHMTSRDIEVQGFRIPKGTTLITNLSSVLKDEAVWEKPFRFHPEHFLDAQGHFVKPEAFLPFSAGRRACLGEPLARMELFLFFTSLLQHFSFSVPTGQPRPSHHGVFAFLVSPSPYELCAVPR

CYP3A4 = CYP3A4 (Homo sapiens, UniProt P08684); assay: Inhibition of CYP3A4 (unknown origin) assessed as residual activity at 10 uM; format: ADME; conditions: read-out: INH
Sequence of CYP3A4 (P08684 whole entry): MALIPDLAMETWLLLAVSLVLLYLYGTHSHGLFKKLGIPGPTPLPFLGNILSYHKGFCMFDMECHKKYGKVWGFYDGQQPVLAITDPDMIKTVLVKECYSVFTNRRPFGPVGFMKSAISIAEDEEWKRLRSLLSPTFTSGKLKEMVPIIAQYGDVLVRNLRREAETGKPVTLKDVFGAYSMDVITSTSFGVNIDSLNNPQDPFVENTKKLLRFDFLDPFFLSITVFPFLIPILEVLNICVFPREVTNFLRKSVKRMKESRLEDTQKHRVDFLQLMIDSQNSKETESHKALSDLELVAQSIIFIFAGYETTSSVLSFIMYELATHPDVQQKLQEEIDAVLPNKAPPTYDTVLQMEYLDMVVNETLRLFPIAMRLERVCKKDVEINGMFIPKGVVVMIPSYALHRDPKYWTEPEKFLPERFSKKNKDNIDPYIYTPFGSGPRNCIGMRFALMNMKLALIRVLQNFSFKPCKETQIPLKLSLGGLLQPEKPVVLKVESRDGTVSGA

MAO-B = target: T3, MAO-B (Homo sapiens, UniProt P27338); assay: Inhibition of human MAO-B assessed as residual activity at 10 uM; conditions: read-out: INH
T3 sequence (P27338 whole entry): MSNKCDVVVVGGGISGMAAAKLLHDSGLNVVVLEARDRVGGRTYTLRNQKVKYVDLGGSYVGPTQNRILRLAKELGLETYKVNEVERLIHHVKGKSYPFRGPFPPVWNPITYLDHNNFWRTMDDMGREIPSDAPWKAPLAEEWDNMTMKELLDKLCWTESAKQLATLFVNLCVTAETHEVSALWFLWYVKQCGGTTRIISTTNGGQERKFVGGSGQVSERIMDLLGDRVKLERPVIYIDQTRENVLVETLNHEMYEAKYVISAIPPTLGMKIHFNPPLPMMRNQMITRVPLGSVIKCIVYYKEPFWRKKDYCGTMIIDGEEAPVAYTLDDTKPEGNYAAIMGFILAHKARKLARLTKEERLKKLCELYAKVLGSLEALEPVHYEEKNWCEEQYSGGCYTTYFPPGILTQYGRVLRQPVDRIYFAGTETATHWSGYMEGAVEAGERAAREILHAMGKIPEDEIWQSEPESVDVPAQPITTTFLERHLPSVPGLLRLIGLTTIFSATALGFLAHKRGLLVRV

[1] = target: Voltage-gated inwardly rectifying potassium channel KCNH2 (Homo sapiens, UniProt Q12809); assay: Inhibition of human hERG by automated patch clamp assay
Sequence of Voltage-gated inwardly rectifying potassium channel KCNH2 (Q12809 whole entry): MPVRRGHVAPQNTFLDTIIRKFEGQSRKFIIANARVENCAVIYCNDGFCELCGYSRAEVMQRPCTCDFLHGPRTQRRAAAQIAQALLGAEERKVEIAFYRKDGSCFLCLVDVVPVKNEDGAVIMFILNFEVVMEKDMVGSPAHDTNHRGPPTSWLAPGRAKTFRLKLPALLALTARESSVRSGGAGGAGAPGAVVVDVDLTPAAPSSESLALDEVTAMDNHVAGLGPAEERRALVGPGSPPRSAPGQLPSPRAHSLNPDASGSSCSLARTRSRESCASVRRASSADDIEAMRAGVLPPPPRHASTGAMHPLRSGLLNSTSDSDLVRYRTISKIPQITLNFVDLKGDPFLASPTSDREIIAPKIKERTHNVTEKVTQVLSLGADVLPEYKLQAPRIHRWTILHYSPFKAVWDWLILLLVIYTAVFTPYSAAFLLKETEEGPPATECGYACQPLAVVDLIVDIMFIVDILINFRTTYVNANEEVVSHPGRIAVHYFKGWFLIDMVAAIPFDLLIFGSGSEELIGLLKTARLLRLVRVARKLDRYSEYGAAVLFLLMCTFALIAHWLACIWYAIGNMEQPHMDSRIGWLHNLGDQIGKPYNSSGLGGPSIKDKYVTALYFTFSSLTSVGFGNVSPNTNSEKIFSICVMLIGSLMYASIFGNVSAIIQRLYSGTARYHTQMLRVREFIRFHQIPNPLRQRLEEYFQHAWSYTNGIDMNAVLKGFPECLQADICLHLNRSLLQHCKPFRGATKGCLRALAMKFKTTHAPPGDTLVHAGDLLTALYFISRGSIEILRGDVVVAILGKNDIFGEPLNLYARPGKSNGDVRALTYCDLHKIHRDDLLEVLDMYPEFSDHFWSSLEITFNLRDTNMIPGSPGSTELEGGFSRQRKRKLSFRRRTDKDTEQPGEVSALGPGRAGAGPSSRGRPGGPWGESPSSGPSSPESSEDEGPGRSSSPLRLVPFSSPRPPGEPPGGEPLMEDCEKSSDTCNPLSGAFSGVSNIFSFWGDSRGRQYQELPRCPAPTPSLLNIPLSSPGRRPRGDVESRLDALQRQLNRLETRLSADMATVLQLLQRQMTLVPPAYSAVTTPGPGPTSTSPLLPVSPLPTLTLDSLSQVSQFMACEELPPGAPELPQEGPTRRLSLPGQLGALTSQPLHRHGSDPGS

Row | Structure (SMILES) | MIC (Staphylococcus aureus) | MIC (Streptococcus agalactiae) | MIC (Staphylococcus) | MIC (Enterococcus faecium) | MIC (Streptococcus pyogenes) | MIC (Enterococcus faecalis) | MIC (Haemophilus influenzae) | MIC (Streptococcus pneumoniae) | activity at 10 µM (CYP2C9) | activity at 10 µM (CYP1A2) | activity at 10 µM (MAO-A) | activity at 10 µM (CYP2D6) | activity at 10 µM (CYP3A4) | activity at 10 µM (MAO-B) | IC50 [1]
1 | N#CCC1=CCN(c2ccc(N3C[C@H](Cn4ccnn4)OC3=O)cc2F)CC1 | 3.12 µg/mL (≈ 8.16 µM) | 1.56 µg/mL (≈ 4.08 µM) | 3.12 µg/mL (≈ 8.16 µM) | 3.12 µg/mL (≈ 8.16 µM) | 0.39 µg/mL (≈ 1.02 µM) | 3.12 µg/mL (≈ 8.16 µM) | 1.56 µg/mL (≈ 4.08 µM) | 0.39 µg/mL (≈ 1.02 µM) | – | – | – | – | – | – | –
2 | N#CCC1=CCN(c2ccc(N3C[C@H](Cn4cc(F)nn4)OC3=O)cc2F)CC1 | 100 µg/mL (≈ 250 µM) | 25 µg/mL (≈ 62.4 µM) | 100 µg/mL (≈ 250 µM) | 100 µg/mL (≈ 250 µM) | 25 µg/mL (≈ 62.4 µM) | 100 µg/mL (≈ 250 µM) | 12.5 µg/mL (≈ 31.2 µM) | 50 µg/mL (≈ 125 µM) | – | – | – | – | – | – | –
3 | CCOC(=O)CC1=CCN(c2ccc(N3C[C@H](Cn4ccnn4)OC3=O)cc2F)CC1 | 6.25 µg/mL (≈ 14.6 µM) | 1.56 µg/mL (≈ 3.63 µM) | 6.25 µg/mL (≈ 14.6 µM) | 6.25 µg/mL (≈ 14.6 µM) | 1.56 µg/mL (≈ 3.63 µM) | 6.25 µg/mL (≈ 14.6 µM) | 3.12 µg/mL (≈ 7.27 µM) | 1.56 µg/mL (≈ 3.63 µM) | – | – | – | – | – | – | –
4 | N#CC=C1CCN(c2ccc(N3C[C@H](Cn4ccnn4)OC3=O)cc2F)CC1 | 3.12 µg/mL (≈ 8.16 µM) | 0.78 µg/mL (≈ 2.04 µM) | 3.12 µg/mL (≈ 8.16 µM) | 1.56 µg/mL (≈ 4.08 µM) | 0.39 µg/mL (≈ 1.02 µM) | 3.12 µg/mL (≈ 8.16 µM) | 0.78 µg/mL (≈ 2.04 µM) | 0.39 µg/mL (≈ 1.02 µM) | 88% | 55.2% | 3.54% | 80.9% | 32% | 111% | 49.5 µM
5 | N#CC=C1CCN(c2ccc(N3C[C@H](Cn4cc(F)nn4)OC3=O)cc2F)CC1 | 50 µg/mL (≈ 125 µM) | 100 µg/mL (≈ 250 µM) | 100 µg/mL (≈ 250 µM) | 50 µg/mL (≈ 125 µM) | 50 µg/mL (≈ 125 µM) | 50 µg/mL (≈ 125 µM) | 6.25 µg/mL (≈ 15.6 µM) | 6.25 µg/mL (≈ 15.6 µM) | 66.6% | 91.8% | 50.6% | 117% | 23.6% | 19.5% | –
6 | CCOC(=O)C=C1CCN(c2ccc(N3C[C@H](Cn4ccnn4)OC3=O)cc2F)CC1 | 25 µg/mL (≈ 58.2 µM) | 12.5 µg/mL (≈ 29.1 µM) | 25 µg/mL (≈ 58.2 µM) | 25 µg/mL (≈ 58.2 µM) | 6.25 µg/mL (≈ 14.6 µM) | 25 µg/mL (≈ 58.2 µM) | 12.5 µg/mL (≈ 29.1 µM) | 6.25 µg/mL (≈ 14.6 µM) | – | – | – | – | – | – | –
7 | CCOC(=O)C=C1CCN(c2ccc(N3C[C@H](Cn4cc(F)nn4)OC3=O)cc2F)CC1 | 100 µg/mL (≈ 223 µM) | 100 µg/mL (≈ 223 µM) | 100 µg/mL (≈ 223 µM) | 100 µg/mL (≈ 223 µM) | 50 µg/mL (≈ 112 µM) | 100 µg/mL (≈ 223 µM) | 6.25 µg/mL (≈ 14 µM) | 6.25 µg/mL (≈ 14 µM) | – | – | – | – | – | – | –
8 | COC(=O)C=C1CCN(c2ccc(N3C[C@H](Cn4ccnn4)OC3=O)cc2F)CC1 | 3.12 µg/mL (≈ 7.51 µM) | 1.56 µg/mL (≈ 3.76 µM) | 3.12 µg/mL (≈ 7.51 µM) | 6.25 µg/mL (≈ 15 µM) | 0.78 µg/mL (≈ 1.88 µM) | 3.12 µg/mL (≈ 7.51 µM) | 1.56 µg/mL (≈ 3.76 µM) | 0.78 µg/mL (≈ 1.88 µM) | – | – | – | – | – | – | –
9 | CCOC(=O)C(C)=C1CCN(c2ccc(N3C[C@H](Cn4ccnn4)OC3=O)cc2F)CC1 | 12.5 µg/mL (≈ 28.2 µM) | 1.56 µg/mL (≈ 3.52 µM) | 12.5 µg/mL (≈ 28.2 µM) | 6.25 µg/mL (≈ 14.1 µM) | 0.78 µg/mL (≈ 1.76 µM) | 6.25 µg/mL (≈ 14.1 µM) | 1.56 µg/mL (≈ 3.52 µM) | 0.78 µg/mL (≈ 1.76 µM) | – | – | – | – | – | – | –
10 | CCOC(=O)C(C)=C1CCN(c2ccc(N3C[C@H](Cn4cc(F)nn4)OC3=O)cc2F)CC1 | 100 µg/mL (≈ 217 µM) | 100 µg/mL (≈ 217 µM) | 100 µg/mL (≈ 217 µM) | 100 µg/mL (≈ 217 µM) | 100 µg/mL (≈ 217 µM) | 100 µg/mL (≈ 217 µM) | 100 µg/mL (≈ 217 µM) | 100 µg/mL (≈ 217 µM) | – | – | – | – | – | – | –
